# According to patent US12180307B2, “Interleukin-13 binding cyclic oligopeptides and methods of use thereof” (B.A.I. LABORATORIES, LLC, priority 2022, dated 2024):
# Values joined by “and” are separate entries in the source; they are usually repeats but may differ in a detail not shown here. Equal values may be shown once. Square brackets hold non-standard residues; d marks the D form. Peptide text beside a SMILES is read from it.
# Experiments:
# Human IL-13 = Human IL-13 (Homo sapiens, UniProt P35225); test: Surface plasmon resonance (SPR) binding assay, BIAcore 8K plus, immobilized Fc-tagged IL-13; settings: 25° C., human IL-13 with Fc-tag immobilized on CM5 chip, read-out: Binding Affinity (KD) for IL-13
# Experimental: A SPR assay was conducted to determine the binding affinity of the cyclic oligopeptides generated in Example 1 for IL-13 using a BIAcore 8K plus instrument (GE Healthcare). Human IL-13 with an Fc-tag was immobilized onto the surfaces of Series S Sensor CM5 (GE Healthcare) chips in the range of 5000 resonance units (RU). The binding kinetics were performed at 25° C. with a flow rate of 30 μL/min. The cyclic oligopeptides were analyzed in running buffer comprising 20 mM PBS, 2.7 mM KCl, […], 0.0500 Surfactant P20, pH 7.4, 1% DMSO, starting at 100 μM with gradient of ten two-fold dilutions using solvent correction mode.
# FIGS. 2C, 3C, 4C, 5C, 6C, 7C, 8C, 9C, 10C, 11C, and 12C provide SPR response curves for the cyclic oligopeptides generated in Example 1, wherein the x-axis represents time of reaction and y-axis represents altitude of response (Response Units).
# [1] = Skin permeability, Franz Cell diffusion cell with artificial skin, Transdermal Diffusion Tester, BCA assay; format: in vitro ADME; settings: for Average Permeation Rate After 1 Hour (%) / Average Permeation Rate After 24 Hours (%): 32° C., 1.0 mg/mL in PBS; for Average Permeation Rate After 1 Hour (%) / Papp at 1 h, 1 mg/mL: after 1 hour; for Papp at 1 h, 1 mg/mL: read-out: Average Permeability Coefficient (Kp) After 1 hour (converted); for Average Permeation Rate After 24 Hours (%) / Papp at 24 h, 1 mg/mL: after 24 hours; for Papp at 24 h, 1 mg/mL: read-out: Average Permeability Coefficient (Kp) After 24 hours
# Experimental: As used herein, the term “skin permeation rate” of a cyclic oligopeptide is measured using artificial skin (Start M, Merck), and refers to the percentage of the cyclic oligopeptide that penetrate the artificial skin after certain amount of time. For example, if 60% of the total amount of a cyclic oligopeptide of this disclosure has penetrated the artificial skin after 24 hours, then the skin permeation rate of the cyclic oligopeptide is 60% after 24 hours.
# As used herein, the term “skin permeability coefficient (Kp)” refers to the rate at which the cyclic oligopeptide penetrates the skin, as measured using artificial skin (Start M, Merck). In some embodiments, permeability coefficient (Kp)(cm/hr) is calculated with the following equation:
# [formula] wherein Q(mg) refers to the total amount of cyclic oligopeptide that pass through the artificial skin within a certain amount of time; A(cm^2) refers to the internal cross-section area of the artificial skin in a diffusion cell; T(hr) refers to the total amount of time of cyclic oligopeptide permeation; and ΔC(mg/mL) refers to the concentration difference of the cyclic oligopeptide between the two sides of the artificial skin. In some embodiments, the diffusion cell is a Franz Cell.
# Skin permeability of the cyclic oligopeptides generated in Example 1 was measured using Transdermal Diffusion Tester (TK-12D, Shanghai Kai Kai Industrial Co Ltd) and artificial skin (Start M, Merck). Three parallel experimental groups were set up for each sample. The skin permeability of cyclic oligopeptides was evaluated by the following steps: • 1) 2.0 mg cyclic oligopeptide was weighed and dissolved in 100 μL DMSO. Three parallel experimental groups were set up for each cyclic oligopeptide. The cyclic oligopeptide-containing solution was then slowly added dropwise to 1900 μL 1×PBS solution and mixed evenly to prepare a PBS solution with a final concentration of 1.0 mg/mL cyclic polypeptide. • 2) A magnetron was inserted into a Franz Cell diffusion cell, and an artificial skin was sandwiched in the middle of the diffusion cell with the smooth side of the artificial skin facing up. The diffusion cell was then fixed with clamps after assembly. • 3) 7.75 ml 1×PBS solution were then added to the diffusion cell without generating bubbles in the diffusion cell. The sampling port of the diffusion cell was then sealed with parafilm to reduce evaporation. • 4) The temperature of a Transdermal Diffusion Tester was then set to 32° C., and the magneton speed was set to 180 r/min. • 5) The assembled diffusion cell was then put into the Transdermal Diffusion Tester and preheated for 5-10 mins. • 6) 400 μL of 1.0 mg/mL cyclic oligopeptide solution prepared in step 1) was then added to the upper chamber of the diffusion cell, making it evenly dispersed on the surface of the artificial skin without air bubbles. The top port of the diffusion cell was then covered with parafilm to reduce evaporation. • 7) Starting from the time of adding the cyclic oligopeptide solution, samples of about 0.5 mL of the receiving solution were taken at six time points, 1 h, 2 h, 4 h, 8 h, 12 h and 24 h, using a plastic dropper to take out the samples from the sampling port of the diffusion cell. 0.5 mL of 1×PBS solution was added into the diffusion cell to restore the initial volume of the receiving solution. When sampling, the diffusion cell was tilted appropriately to avoid the generation of bubbles. The samples were then numbered and store at −20° C. • 8) A BCA Assay (Micro BCA Protein Assay Kit, Thermo Scientific) was conducted to measure the concentration of cyclic oligopeptide in samples obtained in step 7) (Actual Concentration of the cyclic oligopeptide at the particular time point). Three parallel groups were used. The weight of cyclic oligopeptide in each sample obtained in step 7) equals to Actual Concentration×0.5 mL. • 9) Permeation rate of each cyclic oligopeptide at each time point was calculated according to the following equation: […]
# FIG. 2D = test: FIG. 2D
# From the text: Table printed on a drawing sheet, FIG. 2D
# The patent's description of the figure: FIG. 2A provides the mass spectrometry (MS) spectrum for Compound 1. FIG. 2B provides the high-performance liquid chromatography (HPLC) chromatogram for Compound 1. FIG. 2C provides surface plasmon resonance (SPR) assay curves showing the binding affinity of Compound 1 for IL-13, the x-axis represents time of reaction and y-axis represents altitude of response (Response Units). FIG. 2D illustrates skin permeation rate of Compound 1 for up to 24 hours. FIG. 2E illustrates average permeability coefficient (Kp) of Compound 1 for 1, 2, 4, 8, 12 and 24 hours.
# First reader's note: Substance name is taken from the legend of the plot printed above the table; the values are skin permeation in three replicates, their average and their range.
# FIG. 6D = test: FIG. 6D
# Experimental: Table printed on a drawing sheet, FIG. 6D
# The patent's description of the figure: FIG. 6A provides the MS spectrum of Compound 5. FIG. 6B provides the HPLC chromatogram for Compound 5. FIG. 6C provides SPR assay curves showing the binding affinity of Compound 5 for IL-13, the x-axis represents time of reaction and y-axis represents altitude of response (Response Units). FIG. 6D illustrates skin permeation rate of Compound 5 for up to 24 hours. FIG. 6E illustrates average permeability coefficient (Kp) of Compound 5 for 1, 2, 4, 8, 12 and 24 hours.
# First reader's note: The substance name Compound 5 comes from the legend of the plot printed above the table; the values are three replicate permeation measurements with their average and range.
# FIG. 5D = test: FIG. 5D
# Experimental: Table printed on a drawing sheet, FIG. 5D
# The patent's description of the figure: FIG. 5A provides the MS spectrum for Compound 4. FIG. 5B provides the HPLC chromatogram for Compound 4. FIG. 5C provides SPR assay curves showing the binding affinity of Compound 4 for IL-13, the x-axis represents time of reaction and y-axis represents altitude of response (Response Units). FIG. 5D illustrates skin permeation rate of Compound 4 for up to 24 hours. FIG. 5E illustrates average permeability coefficient (Kp) of Compound 4 for 1, 2, 4, 8, 12 and 24 hours.
# First reader's note: The substance name is taken from the legend of the plot above the table on the same sheet; the values are skin permeation rates over time.
# FIG.4D = test: FIG.4D
# Experimental: Table printed on a drawing sheet, FIG.4D
# The patent's description of the figure: FIG. 4A provides the MS spectrum for Compound 3. FIG. 4B provides the HPLC chromatogram for Compound 3. FIG. 4C provides SPR assay curves showing the binding affinity of Compound 3 for IL-13, the x-axis represents time of reaction and y-axis represents altitude of response (Response Units). FIG. 4D illustrates skin permeation rate of Compound 3 for up to 24 hours. FIG. 4E illustrates average permeability coefficient (Kp) of Compound 3 for 1, 2, 4, 8, 12 and 24 hours.
# First reader's note: The substance name is printed only in the legend of the plot above the table; columns 2 to 4 are three replicate permeation measurements.
# FIG. 3D = test: FIG. 3D
# Experimental: Table printed on a drawing sheet, FIG. 3D
# The patent's description of the figure: FIG. 3A provides the MS spectrum for Compound 2. FIG. 3B provides the HPLC chromatogram for Compound 2. FIG. 3C provides SPR assay curves showing the binding affinity of Compound 2 for IL-13, the x-axis represents time of reaction and y-axis represents altitude of response (Response Units). FIG. 3D illustrates skin permeation rate of Compound 2 for up to 24 hours. FIG. 3E illustrates average permeability coefficient (Kp) of Compound 2 for 1, 2, 4, 8, 12 and 24 hours.
# First reader's note: The substance name is taken from the legend of the plot printed above the table; the values are three replicate permeation rates, their average and their range.
# FIG. 7D = test: FIG. 7D
# Experimental: Table printed on a drawing sheet, FIG. 7D
# The patent's description of the figure: FIG. 7A provides the MS spectrum for Compound 6. FIG. 7B provides the HPLC chromatogram for Compound 6. FIG. 7C provides SPR assay curves showing the binding affinity of Compound 6 for IL-13, the x-axis represents time of reaction and y-axis represents altitude of response (Response Units). FIG. 7D illustrates skin permeation rate of Compound 6 for up to 24 hours. FIG. 7E illustrates average permeability coefficient (Kp) of Compound 6 for 1, 2, 4, 8, 12 and 24 hours.
# First reader's note: The substance name Compound 6 is taken from the legend of the plot printed above the table on the same sheet.
# Chain of Human IL-13 (P35225 25-146): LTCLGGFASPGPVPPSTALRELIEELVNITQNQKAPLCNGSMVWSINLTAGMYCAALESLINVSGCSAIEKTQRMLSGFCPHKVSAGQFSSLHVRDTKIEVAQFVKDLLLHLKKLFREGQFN
Structure (SMILES),Kd (Human IL-13) [µM],Average Permeation Rate After 1 Hour (%) [1] [%],Average Permeation Rate After 24 Hours (%) [1] [%],"Papp at 1 h, 1 mg/mL [1] [×10⁻⁶ cm/s]","Papp at 24 h, 1 mg/mL [1] [×10⁻⁶ cm/s]",Permeation Avg. (%) (FIG. 2D),Permeation Avg. (%) (FIG. 6D),Permeation Avg. (%) (FIG. 5D),Permeation Avg. (%) (FIG.4D),Permeation Avg. (%) (FIG. 3D),Permeation Avg. (%) (FIG. 7D)
"CC(C)[C@H]1NC(=O)[C@@H](Cc2ccccc2)NC(=O)[C@@H](CCCNC(=N)N)NC(=O)[C@@H]2CCCN2C(=O)[C@H](CCC(=O)O)NC(=O)[C@H](Cc2ccc(O)cc2)NC1=O [Compound 1, D-Arg D-Phe D- Val Tyr Glu Pro] (cyclo(EP[dR][dF][dV]Y))",16,18.54,42.06,11.1,> 0.0278,23.80% and 30.38% and 34.53% and 39.28%,–,–,–,–,–
"CC(C)[C@@H]1NC(=O)[C@H](Cc2c[nH]c3ccccc23)NC(=O)[C@H]2CCCN2C(=O)[C@H]2CCCN2C(=O)[C@H](CCC(=O)O)NC(=O)[C@H](CCCNC(=N)N)NC1=O [Compound 5, Trp Val Arg Glu D-Pro D-Pro] (cyclo(E[dP][dP]WVR))",47.1,–,48.73,13.4,–,–,29.54% and 37.22% and 40.94% and 45.90%,–,–,–,–
"CC(C)[C@H]1NC(=O)[C@H](CCC(=O)O)NC(=O)[C@H](CCCNC(=N)N)NC(=O)[C@H]2CCCN2C(=O)[C@H]2CCCN2C(=O)[C@H](Cc2c[nH]c3ccccc23)NC1=O [Compound 4, Arg Glu D-Val Trp D-Pro D-Pro] (cyclo(E[dV]W[dP][dP]R))",26.2,17.28,35.59,10.3,> 0.0278,–,–,21.81% and 27.10% and 30.14% and 33.22%,–,–,–
"CC(C)[C@H]1NC(=O)[C@@H]([C@H](C)O)NC(=O)[C@H](CCC(=O)O)NC(=O)[C@H]2CCCN2C(=O)[C@H]2CCCN2C(=O)[C@H](Cc2c[nH]c3ccccc23)NC1=O [Compound 3, Glu D-Thr D-Val Trp D-Pro D-Pro] (cyclo(E[dT][dV]W[dP][dP]))",22.8,19.61,36.59,11.7,–,–,–,–,24.16% and 28.65% and 31.31% and 34.61%,–,–
"CC(C)[C@H]1NC(=O)[C@H]([C@@H](C)O)NC(=O)[C@H](CCCNC(=N)N)NC(=O)[C@H]2CCCN2C(=O)[C@@H](Cc2ccccc2)NC(=O)[C@H](CCC(=O)O)NC1=O [Compound 2, Arg Thr D-Val Glu D-Phe D-Pro] (cyclo(E[dF][dP]RT[dV]))",17.4,14.62,30.51,8.69,–,–,–,–,–,18.57% and 23.21% and 25.36% and 28.50%,–
"CC(C)[C@H]1NC(=O)[C@@H]([C@H](C)O)NC(=O)[C@H](CCC(=O)O)NC(=O)[C@H](CCCNC(=N)N)NC(=O)[C@H](Cc2ccc(O)cc2)NC(=O)[C@H]2CCCN2C1=O [Compound 6, Tyr Arg Glu D-Thr D-Val D-Pro] (cyclo(E[dT][dV][dP]YR))",55.4,15.34,33.86,9.14,–,–,–,–,–,–,22.01% and 26.17% and 29.25% and 31.77%
